Assay results reported in patent publication US20060013871A1 (priority 2003, published 2006).

Test: Particle size analysis in water suspension, Beckman LS230
Format: physicochemical
Details: feedstock of Example 5, water suspension, Beckman Coulter LS230
Experimental: The vessel was charged with 405 g of CO2. The agitator rpm was 1,776. The mixing process was run for 1 hr. The final temperature and pressure were 28° C. and 1,434 psig, respectively.
Particle size analysis was done in water suspension using Beckman LS230, however it is known that in an aqueous medium Poloxamer is likely to dissolve.

## CC(C)Cc1ccc(C(C)C(=O)O)cc1 (stereo not drawn) [Ibuprofen]
  d16 particle size of feedstock: 21.8 micron
  d50 particle size of feedstock: 41.21 microns
  d84 particle size of feedstock: 71.05 microns
